Legend:
DNA/EtBr complex = assay: DNA/EtBr fluorescence emission in solution; assay type: binding; settings: 5 μg/ml DNA, 2 μg/ml EtBr
Description: The fluorescence emission of DNA-dye ligands such as ethidium bromide (EtBr) are examined spectroscopically in solution.
Changes in fluorescence intensity were noticeable at 2 μM.

actin-cofilin complex = assay: Native PAGE gel analysis of actin-cofilin complex; assay type: binding; settings: for Effective (E50) concentration, disappearance of the actin-cofilin band: native PAGE gels, 25 μM actin-cofilin complex, metal mass without counter ions
Description: Four heavy metal ions (Cd, Cu, Hg and Zn) were examined over the concentration range 1-1000 μg L^−1.
Combinations of actin, cofilin and DNaseI were mixed at equimolar concentrations (˜20-25 μm) in a Eppendorf tube and incubated for 15 min at 22° C. Actin, cofilin, DNaseI and their complexes were then separated on a 10% w/v native gel. […] Instead, the rate of migration is determined by the ratio of charge to volume. Actin (MT 43 kDa) has a net negative charge.

[1] = test system: Sub-mitochondrial Particle (SMP); settings: cited from earlier work
Beef Heart Mitochondria = settings: cited from earlier work
Fish = settings: at 96 hr; cited from earlier work
[2] = test system: Photobacterium phosphoreum; settings: cited from earlier work

SMILES | Concentration at which changes in fluorescence intensity were noticeable (DNA/EtBr complex) [µM] | Concentration range of concentration-dependent quenching of fluorescent signal (DNA/EtBr complex; excitation 520 nm) [µM] | Density of the actin-cofilin complex (actin-cofilin complex; 250-2500 μg L^−1) | Effective (E50) concentration, disappearance of the actin-cofilin band (actin-cofilin complex) [µg/L] | Effective (E50) concentration, SMP [1] [µg/L] | Effective (E50) concentration, BHM (Beef Heart Mitochondria) [µg/L] | Effective (E50) concentration, Fish (Fish) [µg/L] | Microtox mean lethal concentration [2] [µg/L] | Concentration at which the actin-cofilin complex is first noticeably affected (actin-cofilin complex; native gel)
[Cl][Hg][Cl] [HgCl2] | 2 | 1 to 100 | – | – | – | – | – | – | –
[Cl-].[Cl-].[Zn+2] [Zn^2+, ZnCl2] | – | – | decreased the density of the actin-cofilin complex | 900 to 1000 | 1700 | 80 | 2990 | 33000 | –
[Cd+2] [Cd^2+] | – | – | – | 800 to 1200 | 520 | 158 | 630 | 41400 | –
[Cu+2] [Cu^2+] | – | – | – | 400 to 600 | 300 | 93 | 530 | 9300 | approximately 200 μg L^−1

— patent US20020018997A1, “Biomolecular toxicity assay” (priority 2000, published 2002)
